Experimental data as given in US10538532B2, “Hepatitis B antiviral agents” (ENANTA PHARMACEUTICALS, INC., priority 2016, dated 2020).

What was measured:
HBV = experiment: HepAD38 antiviral assay: reduction of viral product accumulation (virion DNA by qPCR, HBsAg or HBeAg by ELISA); type: cell-based, hepatitis B virus; conditions: Hepatitis B virus, HePAD38, 120 h, HepAD38 cells, five days after compound addition; concentration reducing viral product accumulation by 50% relative to no drug controls; read-out: HepAD38 EC50
Procedure, shortened: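 HepAD38 cells were washed free of tetracycline, plated at 35,000 cells/well and given compounds diluted 1:200 from DMSO. After 5 days, or 8 days with media and compound refreshed on d2 and d5, virion DNA was measured by qPCR and HBsAg or HBeAg by ELISA. EC50 is the concentration giving 50% reduction of viral product versus no-drug controls.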

[1] = Compound toxicity, ATPLite total ATP levels; type: cell-based; conditions: human, HepAD38 cells; three days after compound addition; concentration reducing total ATP levels by 50% relative to no drug controls; class symbols
Description: Methods: HepAD38 cells are maintained as previously reported (Ladner et al, Antimicrob. Agents Chemother. 1997, […], 1715). Briefly, cells are passaged upon attaining confluency in DMEM/F12 media in the presence of 10% FBS, Penn/Strep, 250 μg/mL G418, and 1 ug/ml tetracycline. Novel compounds are screened by first washing cells three times with PBS to remove tetracycline, and plating in 96 well plates at 35,000 cells/well. Compounds dissolved in DMSO are then diluted 1:200 into wells containing cells. Five days after compound addition, material is harvested for analysis. For an extended 8 day analysis, cells are plated and treated as described above, but media and compound are refreshed on d2 and d5 post initial treatment.
Compound toxicity is evaluated by seeding cells at 15,000 cells/well and treating with compound as described above.

Structure (SMILES) | EC50 (HBV) | CC50 at 3 days [1]
O=C(Nc1cc(F)c(F)c(F)c1)c1ccc(Cl)c(S(=O)(=O)[C@H]2C3CCC2C[C@](O)(CO)C3)c1 [Example 60] | < 100 nM | > 25000 nM
[N-]=[N+]=NC[C@]1(O)C2CCC1C[C@@H](S(=O)(=O)c1cc(C(=O)Nc3cc(F)c(F)c(F)c3)ccc1Cl)C2 [Example 257] | < 100 nM | > 25000 nM
O=C(Nc1cc(F)c(F)c(F)c1)c1ccc(Cl)c(S(=O)(=O)Cc2cccnc2)c1 [Example 45] | 100 to 400 nM | > 25000 nM
